Experimental findings from US7846966B2, “Chroman derivatives as estrogenic compounds” (N.V. Organon, priority 2000, dated 2010) are described below.

For the assay, the system named is human estrogen receptor α (hERα) or β receptor (hERβ). The experiment in a line: in vitro transactivation bioassay (estrogenic activity) in recombinant CHO cells co-transfected with hER, rat oxytocin promoter and luciferase reporter. It counts as cell-based. The conditions noted are these: for Potency Transactivation (% relative to 17β-estradiol): agonist potency ratio vs estradiol, CHO cells, luciferase reporter, receptor subtype not given; for β/α ratio: ratio of hERβ to hERα. The procedure: The estrogenic and antiestrogenic activity of compounds is determined in an in vitro bioassay with recombinant Chinese hamster ovary (CHO) cells stably co-transfected with the human estrogen receptor α (hERα) or β receptor (hERβ), the rat oxytocin promoter (RO) and the luciferase reporter gene (LUC). The estrogenic activity (potency ratio) of a test compound to stimulate the transactivation of the enzyme luciferase mediated via the estrogen receptors hERα or hERβ is compared with the standard estrogen estradiol. The antiestrogenic activity (potency ratio) of a test compound to inhibit the transactivation of the enzyme luciferase mediated via the estrogen receptors hERα or hERβ by the estrogen estradiol is compared with the standard ICI 164.384 (=(7α, 17β)-N-butyl-3,17-dihydroxy-N-methylestra-1,3,5(10)-triene-7-undecanamide).
(In general: Reporter assays use an easily measured gene product as a stand-in for the process of interest.)

Regarding `CCC1C(Cc2ccccc2)c2cc(OC(=O)C(C)(C)C)ccc2OC1c1ccc(OC(=O)C(C)(C)C)cc1` (racemic) [Compound 6b], the “Potency Transactivation (% relative to 17β-estradiol)” value is on record as “+ (+ between 0.1-4%)” and the β/α ratio entry is “+ (+ between 3.5-10)”.
Taken in the same sequence, the figures for `CCC1C(Cc2ccccc2)c2cc(O)ccc2OC1c1ccc(O)cc1` (stereo not drawn) [Compound 5b] were “+++ (+++ >10%)” and “+++ (+++ >30)”.
As to `CCCC(=O)Oc1ccc(C2Oc3ccc(OC(=O)CCC)cc3C(Cc3ccccc3)C2CC)cc1` (racemic) [Compound 6a], the “Potency Transactivation (% relative to 17β-estradiol)” value was “+++ (+++ >10%)” and the β/α ratio entry is listed as “+++ (+++ >30)”.
